Where a name gives a salt, the structure may show the parent alone.

Series [1] relates to AML12 cells. Kind of series: Pathway of NRH-induced NAD+ synthesis: intracellular metabolites and pathway inhibitors. To be noted: for Effect of adenosine kinase inhibitor on NRH-mediated NAD+ synthesis: AML12 cells, 5-IT 10 mM for 1 hour prior to NRH, NAD measured 1 hour later. The class given is cell-based. On the procedure: FIG. 4. NRH leads to NAD+ biosynthesis through an adenosine kinase dependent path. AML12 cells were treated with an adenosine kinase inhibitor (5-IT; […]) for 1 hour prior to NRH treatment at the doses indicated. Then, 1 hour later, acidic extracts were obtained to measure NAD levels. All values in the figure are expressed as mean+/−SEM of 3 independent experiments. * indicates statistical difference at p<0.05 vs. the respective vehicle treated group.
(§1) Levels of NRH and other NAD-related metabolites in biological samples were obtained by using a cold liquid-liquid extraction using a mixture of methanol:water:chloroform in 5:3:5 (v/v), from which the polar phase was recovered for hydrophilic interaction ultra-high performance liquid chromatography mass spectrometry (UHPLC-MS) analysis. The UHPLC consisted of a binary pump, a cooled autosampler, and a column oven (DIONEX Ultimate 3000 UHPLC+ Focused, Thermo Scientific), connected to a triple quadrupole spectrometer (TSQ Vantage, Thermo Scientific) equipped with a heated electrospray ionisation (H-ESI) source. Of each sample, 2 μL were injected into the analytical column (2.1 mm×150 mm, 5 μm pore size, 200 Å HILICON iHILIC®-Fusion(P)), guarded by a pre-column (2.1 mm×20 mm, 200 Å HILICON iHILIC®-Fusion(P) Guard Kit) operating at 35° C. The mobile phase (10 mM ammonium acetate at pH 9, A, and acetonitrile, B) was pumped at 0.25 mL/min flow rate over a linear gradient of decreasing organic solvent (0.5-16 min, 90-25% B), followed by re-equilibration for a total run time of 30 min. The MS operated in positive mode at 3500 V with multiple reaction monitoring (MRM). The software Xcalibur v4.1.31.9 (Thermo Scientific) was used for instrument control, data acquisition and processing. Retention time and mass detection was confirmed by authentic standards.
A path in which NRH would be converted to NMNH, then to NADH and this would be finally oxidized to NAD+.
In order to understand the exact path by which NRH synthesizes NAD+, we initially evaluated whether NRH, could be transported into the cell by equilibrative nucleoside transporters (ENTs).
(§2) The action of NRH was also NAMPT-independent, based on experiments using FK866, a NAMPT inhibitor. If NRH led to NAD+ synthesis via the formation of NMNH, this hypothetical path would require the phosphorylation of NRH into NMNH. Given the essential and rate-limiting role of NRK1 in NR phosphorylation, we wondered whether the ability of NRH to boost NAD+ levels was NRK1 dependent. To answer this question, we evaluated NRH action in primary hepatocytes from either control or NRK1 knockout (NRK1KO) mice. […] Further, they rule out the possibility that NRH-induced NAD+ […] is driven by NRH oxidation into NR.
Considering the molecular structure of NRH, we reasoned that an alternative nucleoside kinase could be responsible for the phosphorylation of NRH. […] The role of AK in NRH-mediated NAD+ synthesis was confirmed using a second, structurally different, AK inhibitor, ABT-702. Metabolomic analyses further confirmed that upon inhibition of AK, the generation of NMNH, NADH and NAD+ was fully blunted, even if NRH was effectively entering the cell.
As a follow-up step, NMNAT enzymes could catalyze the transition from NMNH to NADH. […] Yet, part of the NRH action remained after gallotannin treatment when NRH was used at maximal doses.

Series [2] deals with primary hepatocytes from control or NRK1 knockout (NRK1KO) mice. Kind of series: NAD+ levels in primary hepatocytes from control or NRK1 knockout mice. The class given is cell-based. Conditions: 1 hour of treatment.
From the text: as §2

Series [3] can be described thus: Circulating NRH, NR and NAM in mice after intraperitoneal injection. The class given is in vivo. Conditions: mice, IP 500 mg/kg.
From the text: as §1
(§3) The above results prompted us to test whether NRH could act as an effective NAD+ precursor in vivo. For this, we first intraperitoneally (IP) injected mice with either NR or NRH (500 mg/kg). […] Importantly, NRH was detectable in circulation after IP injection.

Series [4] is described as follows: Stability of NRH or NR spiked in isolated mouse plasma. Type of series: in vitro ADME. Conditions: 2 h of incubation.
From the text: as §1

Series [5] deals with mice. Kind of series: Tissue NAD+ levels in mice after intraperitoneal injection. The class given is in vivo. Conditions: IP 500 mg/kg, after 1 h. As for the experimental part: as §3
The nature of series [6]: Plasma NRH, NR and NAM in mice after oral administration. The class given is in vivo. Conditions: mouse, in vivo, po.
From the text: as §1
Oral administration of NRH led to very similar results to those observed after IP administration. […] NRH was detectable in plasma 1 h after oral administration. In contrast, NR levels were undetectable at 1 h after NR administration.

With `Nc1ncnc2c1c(I)cn2[C@@H]1O[C@H](CO)[C@@H](O)[C@H]1O` [5-IT, 5-iodotubercidin], in series [1], the “Effect of adenosine kinase inhibitor on NRH-mediated NAD+ synthesis” value is recorded as “fully ablated the action of NRH”. In addition, the “Formation of NR and NMN after NRH treatment under AK inhibitor” value in series [1] (metabolomic analyses) was “prevented the formation of NR and NMN”.
For `Nc1ncnc2nc(-c3ccc(N4CCOCC4)nc3)cc(-c3cccc(Br)c3)c12` [ABT-702], the “Effect of adenosine kinase inhibitor on NRH-mediated NAD+ synthesis” value in series [1] is “confirmed”.
Take `NC(=O)c1ccc[n+]([C@@H]2O[C@H](CO)[C@H](O)C2O)c1` (stereo partly drawn) [NR, 1-b-D-ribofuranosyl-3-pyridinecarboxamide salt, reference compound]: the “Intracellular detection of NRH and NMNH” value in series [1] (5 minutes after treatment) is reported as “not”. For the same compound, the “NAD+ levels in NRK1KO derived primary hepatocytes” value in series [2] is recorded as “failed to increase NAD+ levels”. Besides, the “NAM levels in circulation” value in series [3] is recorded as “highly increased”. Further, in series [4], the “Compound levels in isolated mouse plasma” value is recorded as “decayed” and the “Generation of NAM in isolated mouse plasma” value is listed as “increase in NAM”. Besides, in series [5], the “NAD+ levels in kidney” value was “increased NAD+ levels”, the “NAD+ levels in liver” value was “increased NAD+ levels” and the “NAD+ levels in muscle” value is “increased NAD+ levels”. In series [6] (C57BL/6NTac, 1 h), the “Circulating NAM after NR treatment relative to NRH treatment” value is ~4 fold. Moreover, in series [6], the “Administered compound in plasma” value is “undetectable” and the “Circulating NAM” value was “large increases”.
As for `O=C(OC[C@H]1O[C@@H](OC(=O)c2cc(O)c(O)c(OC(=O)c3cc(O)c(O)c(O)c3)c2)[C@H](OC(=O)c2cc(O)c(O)c(OC(=O)c3cc(O)c(O)c(O)c3)c2)[C@@H](OC(=O)c2cc(O)c(O)c(OC(=O)c3cc(O)c(O)c(O)c3)c2)[C@@H]1OC(=O)c1cc(O)c(O)c(OC(=O)c2cc(O)c(O)c(O)c2)c1)c1cc(O)c(O)c(OC(=O)c2cc(O)c(O)c(O)c2)c1` [gallotannin], the “Effect of NMNAT inhibitor on NAD+ synthesis after NRH treatment” value in series [1] (NRH at maximal doses (0.5 mM), part of NRH action remained) is given as “largely compromised NAD+ synthesis”. The “Effect of NMNAT inhibitor on NRH action” value in series [1] (NRH at submaximal doses) is given as “totally blocked”.

Values taken from patent US20230138327A1, “COMPOSITIONS AND METHODS CONTAINING REDUCED NICOTINAMIDE RIBOSIDE FOR PREVENTION AND TREATMENT OF PANCREATIC DISEASES AND CONDITIONS” (SOCIETE DES PRODUITS NESTLE S.A., priority 2020, published 2023).
